The values below come from patent US12527327B2, “High hyaluronate multi-purpose disinfection solutions for ophthalmic applications” (CIS BIOPHARMA AG, priority 2019, dated 2026).

Usually viability stands for a read-out of living cells in per cent, often relative to untreated cells. A low value points to a greater loss of cells.

This data set is described as follows: XTT cytotoxicity assay according to ISO 10993. To be noted: mouse. The source says: A larger scale batch (100 Liter) of Formulation E was further evaluated in more detail with an XTT test according to ISO 10993, published by the International Organization for Standardization: “Biological Evaluation of Medical Devices”, Part 1: “Evaluation and testing within a risk management process”, 2018, Part 5: “Tests for in vitro cytotoxicity”, 2009 using a valuated method from the ICCR-Roßdorf GmbH (Germany) and a Xenometrix test kit. With the XTT assay, cell proliferation and viability as well as the mitochondrial metabolic competence of the cells after treatment with a test item is determined […]. The XTT test is based on the cleavage of the yellow tetrazolium salt XTT [_(sodium 3′-(1-phenylaminocarbonyl)-(3,4-tetrazolium)-bis-(4-methoxy-6-nitro)-benzenesulfonic acid hydrate)] to form an orange water soluble formazan dye by dehydrogenase activity in active mitochondria. This method was first described 1988 by SCUDIERO et al.
In brief, the potential cytotoxic effect was evaluated with a dilution series of formulation E in complete medium [RPMI 1640 medium (including glutamax), supplemented with 10% FCS, 1 mM sodium pyruvate, and 100 units/mL penicillin, and 100 μg/mL streptomycin] resulting in the following end concentrations 39.1 μg/mL, 78.1 μg/mL, 156 μg/mL, 313 μg/mL, 625 μg/mL, 1250 μg/mL; 2500 μg/mL, 5000 μg/mL. Subsequently the effect of the solution was examined after 24±1 h treatment time on prior prepared mouse L929 cell line (supplied by DSMZ, 38124 Braunschweig, Germany). In parallel several controls were tested as well:
Medium Control=Complete medium; Solvent control=Complete medium, Positive control=Sodium dodecyl sulfate (SDS; purity: ≥99%); Solvent=deionized water, diluted with complete medium to a ratio of 1:10 (v/v). The positive control was tested in 8 concentrations in a range from 3.1-250 μg/mL. Solvent control for the positive control=Complete medium and 10% (v/v) deionized water.
At the end of the incubation period, 50 μL of the XTT labelling mixture (Xenometrix, Allschwil, Switzerland) were added to each well. The cells were incubated and subsequently transferred to a microplate reader and the absorbance values were determined (Versamax® Molecular Devices, software SoftMax Pro Enterprise (version 4.7.1)) at 450 nm (reference wavelength 690 nm). A decrease in number of living cells results in a decrease in the overall activity of mitochondrial dehydrogenases in the sample. This decrease directly correlates to the amount of orange formazan formed, as monitored by the absorbance. The relative absorbance (=viability) as compared to the solvent control is calculated using this formula: […]
To calculate the concentration of toxicant required to reduce the relative absorbance to 50% of the solvent control (XTT50) the following formula is used:
[formula] • a) Conc.>50=max. measured concentration with the % of solvent control >50% • b) Conc.<50=min. measured concentration with the % of solvent control <50% • c) %>50=relative absorbance at a) in % • d) %<50=relative absorbance at b) in %
The lower the XTT50 value, the higher is the cytotoxic potential of the test item.
(In general: Tetrazolium dyes change colour on reduction, which living cells bring about.)

The molecule `CCCCCCCCCCCCOS(=O)(=O)[O-].[Na+]` [SDS, Sodium dodecyl sulfate] displayed a viability at 3.1 μg/mL of 96.9%, a viability at 6.3 μg/mL of 97.2%, a viability at 12.5 μg/mL of 99.9% and a viability at 25 μg/mL of 91.7%. The molecule further gave a viability at 50 μg/mL of 85%, a viability at 100 μg/mL of 5.8%, a viability at 125 μg/mL of 1.63% and a viability at 250 μg/mL of 0.16%.
